Assay results: patent US7910573B2, “Crystalline forms of 11β-(4-acetylphenyl)-20,20,21,21,21-pentafluoro-17-hydroxy-19-nor-17α-pregna-4,9-dien-3-one” (Bayer Schering Pharma AG, priority 2006, dated 2011)

Columns and labels:
Assay type in all cases: physicochemical
[1] = Solubility in a water/ethanol mixture; details: proportion of water 20 wt %
From the text: This dependency is depicted in FIG. 7. […] The required proportion of water is distinctly higher for other systems, so that the displacement can be carried out only at high dilution and thus with an inadequate space yield.

[2] = Short-term stability on storage at elevated temperature and elevated humidity; details: 70° C.
From the text: This is shown on comparison of the results of the temperature tests, moisture tests and in particular in light exposure tests.
(§1) On use of 11β-(4-acetylphenyl)-20,20,21,21,21-pentafluoro-17-hydroxy-19-nor-17α-pregna-4,9-dien-3-one as active ingredient in pharmaceutical preparations, the profile of impurities is of crucial importance. A compound which occurs on storage of this active ingredient is 11β-(4-acetylphenyl)-20,20,21,21,21-pentafluoro-17-hydroxy-9,10-epoxy-19-nor-10α,17α-pregna-1,4-dien-3-one. The toxicity of this compound is known. The content of this impurity must be below 0.2% until the shelf life of the pharmaceutical formulation expires. […] The amorphous solid is therefore unsuitable without stabilization for use in a medicinal product. With polymorph I, however, the increase in this critical impurity is virtually zero. Elaborate stabilization on use of polymorph I is therefore no longer necessary. The formation of the abovementioned epoxy impurity on storage of amorphous 11β-(4-acetylphenyl)-20,20,21,21,21-pentafluoro-17-hydroxy-19-nor-17α-pregna-4,9-dien-3-one at a temperature of 70° C. is 0.6% after only 15 days and as much as 1.1% after 30 days. On the other hand, on storage of polymorph I at the same temperature for 30 days, just 0.1% of the epoxy impurity is detectable.

[3] = as above
[4] = Stability on storage under light (20 kLux); details: for decrease in the active ingredient content: initial values 98.4% and 95.4%
From the text: The greater stability of polymorph I is even clearer on storage under light. […] The initial values were 98.4% and 95.4% here too.
as §1

[5] = Solid form conversion of the amorphous active ingredient under stress conditions; details: 15 d, 90° C./75% relative humidity
From the text: It can be assumed that such a recrystallization also occurs on storage of the amorphous phase over a lengthy period at relatively low temperatures. Such a conversion is, however, undesired in the finished medicinal form because it may lead to an altered, non-reproducible release of the active ingredient, but may also influence the hardness of the medicinal form.

[6] = 50° C., 75% rel. humidity, 15 days
[7] = 50° C., 75% rel. humidity, 30 days
[8] = 50° C., no rel. humidity given, 15 days, initial content 98.4% or 95.4%
[9] = 50° C., no rel. humidity given, 30 days, initial content 98.4% or 95.4%
[10] = 70° C., 75% rel. humidity, 15 days
[11] = 70° C., 75% rel. humidity, 30 days
[12] = 70° C., no rel. humidity given, 15 days
[13] = 70° C., no rel. humidity given, 30 days
[14] = 90° C., 75% rel. humidity, 15 days
[15] = 90° C., no rel. humidity given, 15 days

| solubility relative to the solubility in pure ethanol [1] | formation of the epoxy impurity on storage ([2]; 15 days) | formation of the epoxy impurity on storage ([2]; 30 days) | decrease in the active ingredient content [3, 6] | decrease in the active ingredient content [3, 7] | decrease in the active ingredient content [3, 8] | decrease in the active ingredient content [3, 9] | decrease in the active ingredient content [3, 10] | decrease in the active ingredient content [3, 11] | decrease in the active ingredient content [3, 12] | decrease in the active ingredient content [3, 13] | decrease in the active ingredient content [3, 14] | decrease in the active ingredient content [3, 15] | increase in the epoxy impurity ([4]; 20 kLux, 42 h) | increase in the epoxy impurity ([4]; 20 kLux, 66 h) | decrease in the active ingredient content ([4]; storage under 20 kLux for 42 h) | decrease in the active ingredient content ([4]; storage under 20 kLux for 66 h) | increase in the epoxy impurity ([4]; storage under stress conditions and under light) | Structure (SMILES) | change of solid form on storage [5] |
| --- | --- | --- | --- | --- | --- | --- | --- | --- | --- | --- | --- | --- | --- | --- | --- | --- | --- | --- | --- |
| one-hundredth | – | – | – | – | – | – | – | – | – | – | – | – | – | – | – | – | – | CC(=O)c1ccc([C@H]2C[C@@]3(C)[C@@H](CC[C@@]3(O)C(F)(F)C(F)(F)F)[C@@H]3CCC4=CC(=O)CCC4=C32)cc1 [11β-(4-Acetylphenyl)-20,20,21,21,21-pentafluoro-17-hydroxy-19-nor-17α-pregna-4,9-dien-3-one] | – |
| – | 0.6% | 1.1% | −2.8% | −3.3% | −2.9% | −5.1% | −13.5% | −17.4% | −10.2% | −17.3% | −31.7% | −32.6% | 8.4% | 11.2% | −34% | −42% | – | CC(=O)c1ccc([C@H]2C[C@@]3(C)[C@@H](CC[C@@]3(O)C(F)(F)C(F)(F)F)[C@@H]3CCC4=CC(=O)CCC4=C32)cc1 [amorphous, 11β-(4-acetylphenyl)-20,20,21,21,21-pentafluoro-17-hydroxy-19-nor-17α-pregna-4,9-dien-3-one] | Partial recrystallization to give polymorph I |
| – | – | 0.1% | 0% | −0.1% | 0% | −0.3% | −0.1% | −0.2% | −1.5% | −3.5% | −0.2% | −3.6% | 0.1% | 0.1% | −0.2% | −0.4% | below 0.2% | CC(=O)c1ccc([C@H]2C[C@@]3(C)[C@@H](CC[C@@]3(O)C(F)(F)C(F)(F)F)[C@@H]3CCC4=CC(=O)CCC4=C32)cc1 [polymorph I, 11β-(4-acetylphenyl)-20,20,21,21,21-pentafluoro-17-hydroxy-19-nor-17α-pregna-4,9-dien-3-one] | – |
